The target of one test is GDP-bound KRAS protein (aa 1-169), containing both G12C and C118A amino acid substitutions (Homo sapiens, UniProt P01116, C118A/G12C). Briefly: Coupled nucleotide exchange assay (SOS-mediated, AlphaScreen). The format is biochemical. Particulars: 5 min compound pre-incubation.
Chain of GDP-bound KRAS protein (aa 1-169), containing both G12C and C118A amino acid substitutions (P01116 1-169 isoform P01116-2 G12C/C118A): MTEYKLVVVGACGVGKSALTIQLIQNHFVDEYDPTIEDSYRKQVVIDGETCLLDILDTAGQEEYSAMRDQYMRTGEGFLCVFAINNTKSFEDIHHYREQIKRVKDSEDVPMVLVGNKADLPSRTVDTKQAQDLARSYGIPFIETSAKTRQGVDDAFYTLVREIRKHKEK
Consider `C=CC(=O)N1CCN(c2nc(=O)[nH]c3nc(-c4c(O)cccc4F)c(Cl)cc23)[C@@H](C)C1` [Example 119, 6-Chloro-7-(2-fluoro-6-hydroxyphenyl)-4-((2S)-2-methyl-4-(2-propenoyl)-1-piperazinyl)pyrido[2,3-d]pyrimidin-2(1H)-one], for which the “Coupled exchange IC50 (5 min)” value was 10.8 | nda μM.

On to `C=CC(=O)N1CCN(c2nc(=O)n(-c3c(CC)cccc3CC)c3nc(N4CCC(F)(F)C4)c(Cl)cc23)[C@@H](C)C1` [Example 66-14, 6-chloro-1-(2,6-diethylphenyl)-7-(3,3-difluoro-1-pyrrolidinyl)-4-((2S)-2-methyl-4-(2-propenoyl)-1-piperazinyl)pyrido[2,3-d]pyrimidin-2(1H)-one], for which the “Coupled exchange IC50 (5 min)” value is listed as 5.51 | nda μM.

`C=CC(=O)N1CCN(c2nc(=O)n(-c3ccccc3C(C)C)c3nc(C4=CCCOC4)c(Cl)cc23)[C@@H](C)C1` [Example 54-76, 6-chloro-7-(5,6-dihydro-2H-pyran-3-yl)-4-((2S)-2-methyl-4-(2-propenoyl)-1-piperazinyl)-1-(2-(2-propanyl)phenyl)pyrido [2,3-d]pyrimidin-2(1H)-one]: the “Coupled exchange IC50 (5 min)” value is reported as 5.48 | nda μM.

With `C=CC(=O)N1CCN(c2nc(=O)n(-c3c(C)ccnc3N(C)C)c3nc(-c4ccccc4F)c(Cl)cc23)[C@@H](C)C1` (single isomer, unassigned) [Example 55-7-1], the “Coupled exchange IC50 (5 min)” value is given as 0.863 | nda μM.

As for `C=CC(=O)N1CCN(c2nc(=O)n(-c3ccccc3C3(C)CC3)c3nc(-c4ccccc4F)c(Cl)cc23)[C@@H](C)C1` (single isomer, unassigned) [Example 54-99-1], the “Coupled exchange IC50 (5 min)” value is listed as 1.52 | nda μM.

Turning to `C=CC(=O)N1CCN(c2nc(=O)n(-c3cncnc3C(C)(C)C)c3nc(-c4ccccc4F)c(Cl)cc23)[C@@H](C)C1` (single isomer, unassigned) [Example 54-110-1], the “Coupled exchange IC50 (5 min)” value is 7.71 | nda μM.

As for `C=CC(=O)N1C[C@H](C)N(c2nc(=O)n(-c3c(C)ccnc3C(C)C)c3nc(Cl)c(F)cc23)[C@@H](C)C1` (atropisomer, axis not shown; (M)) [Example 72-12, (M)-7-chloro-4-((2S,6S)-2,6-dimethyl-4-(2-propenoyl)-1-piperazinyl)-6-fluoro-1-(4-methyl-2-(2-propanyl)-3-pyridinyl)pyrido[2,3-d]pyrimidin-2(1H)-one], the “Coupled exchange IC50 (5 min)” value is recorded as 4.51 | nda μM.

As to `C=CC(=O)N1CCN(c2nc(=O)n(-c3c(CC)cccc3CC)c3nc(-c4cccnc4C)c(Cl)cc23)[C@@H](C)C1` [Example 55-29, 6-chloro-1-(2,6-diethylphenyl)-4-((2S)-2-methyl-4-(2-propenoyl)-1-piperazinyl)-7-(2-methyl-3-pyridinyl)pyrido[2,3-d]pyrimidin-2(1H)-one], the “Coupled exchange IC50 (5 min)” value is given as 7.19 | nda μM.

Regarding `C=CC(=O)N1CCN(c2nc(=O)n(-c3cccnc3C(C)(C)C)c3nc(-c4c(O)cccc4F)c(Cl)cc23)[C@@H](C)C1` (single isomer, unassigned) [Example 54-103-2], the “Coupled exchange IC50 (5 min)” value was 1.48 | nda μM.

As to `C=CC(=O)N1CCN(c2nc(=O)n(-c3ccccc3C(C)(C)C)c3nc(-c4c(O)cccc4F)c(F)cc23)[C@@H](C)C1` (single isomer, unassigned) [Example 58-1-1], the “Coupled exchange IC50 (5 min)” value is 5.95 | nda μM.

With `C=CC(=O)N1CCN(c2nc(=O)n(-c3c(CC)n[nH]c3CC)c3nc(-c4ccccc4F)c(Cl)cc23)[C@@H](C)C1` [Example 54-106], the “Coupled exchange IC50 (5 min)” value was 0.51 | nda μM.

As to `C=CC(=O)N1CCN(c2nc(=O)c(-c3ccccc3C)c3cc(-c4ccccc4Br)c(C)nn23)CC1` [Example 81-1, 3-(2-Bromophenyl)-2-methyl-5-(2-methylphenyl)-8-(4-(2-propenoyl)-1-piperazinyl)-6H-pyrimido[1,6-b]pyridazin-6-one], the “Coupled exchange IC50 (5 min)” value is 172 | nda μM.

For the compound `C=CC(=O)N1CCN(c2nc(=O)n(-c3c(C4CC4)ncnc3C3CC3)c3nc(-c4ccccc4F)c(F)cc23)[C@@H](C)C1` [Example 59-5, 1-(4,6-dicyclopropyl-5-pyrimidinyl)-6-fluoro-7-(2-fluorophenyl)-4-((2S)-2-methyl-4-(2-propenoyl)-1-piperazinyl)pyrido[2,3-d]pyrimidin-2(1H)-one], the “Coupled exchange IC50 (5 min)” value was 0.501 | nda μM.

Consider `C=CC(=O)N1CCN(c2nc(=O)n(-c3ncccc3C3(C#N)CC3)c3nc(-c4ccccc4F)c(Cl)cc23)[C@@H](C)C1` [Example 54-39, 1-(2-(6-chloro-7-(2-fluorophenyl)-4-((2S)-2-methyl-4-(2-propenoyl)-1-piperazinyl)-2-oxopyrido[2,3-d]pyrimidin-1(2H)-yl)-3-pyridinyl) cyclopropane carbonitrile], for which the “Coupled exchange IC50 (5 min)” value is reported as 32.1 | nda μM.

For the compound `C=CC(=O)N1CCN(c2nc(=O)n(-c3c(C)ncnc3C(C)C)c3nc(-c4cc(C)ccc4F)c(Cl)cc23)[C@@H](C)C1` (single isomer, unassigned) [Example 55-40-1], the “Coupled exchange IC50 (5 min)” value is 1.02 | nda μM.

`C=CC(=O)N1CCN(c2nc(=O)n(-c3ccccc3C(C)C)c3nc(-c4ccc[nH]4)c(Cl)cc23)[C@@H](C)C1` [Example 54-46, 6-chloro-4-((2S)-2-methyl-4-(2-propenoyl)-1-piperazinyl)-1-(2-(2-propanyl)phenyl)-7-(1H-pyrrol-2-yl)pyrido[2,3-d]pyrimidin-2(1H)-one]: the “Coupled exchange IC50 (5 min)” value is recorded as 7.24 | nda μM.

As to `C=CC(=O)N1CCN(c2nc(=O)n(-c3c(CC)cccc3CC)c3nc(N4CCC[C@@H]4C#N)c(Cl)cc23)[C@@H](C)C1` [Example 66-23, (2R)-1-(6-chloro-1-(2,6-diethylphenyl)-4-((2S)-2-methyl-4-(2-propenoyl)-1-piperazinyl)-2-oxo-1,2-dihydropyrido[2,3-d]pyrimidin-7-yl)-2-pyrrolidinecarbonitrile], the “Coupled exchange IC50 (5 min)” value is reported as 160 | nda μM.

On to `C=CC(=O)N1C[C@@H](C)N(c2nc(=O)n(-c3c(C)ccnc3C(C)C)c3nc(Cl)c(Cl)cc23)[C@@H](C)C1` (atropisomer, axis not shown; (M)) [Example 73-11, (M)-6,7-dichloro-4-(cis-2,6-dimethyl-4-(2-propenoyl)-1-piperazinyl)-1-(4-methyl-2-(2-propanyl)-3-pyridinyl)pyrido[2,3-d]pyrimidin-2(1H)-one], for which the “Coupled exchange IC50 (5 min)” value is on record as 0.625 | nda μM.

Consider `C=CC(=O)N1CCN(c2nc(=O)n(-c3ccccc3C(C)C)c3nc(N4CCCCC4C)c(Cl)cc23)[C@@H](C)C1` (stereo partly shown) [Example 69-5], for which the “Coupled exchange IC50 (5 min)” value was 5.64 | nda μM.

Regarding `C=CC(=O)N1CCN(c2nc(=O)n(-c3c(F)cccc3F)c3nc(Cl)c(Cl)cc23)[C@@H](C)C1` [Example 60-16, 6,7-dichloro-1-(2,6-difluorophenyl)-4-((2S)-2-Methyl-4-(2-propenoyl)-1-piperazinyl)pyrido[2,3-d]pyrimidin-2(1H)-one], the “Coupled exchange IC50 (5 min)” value was 46.1 | nda μM.

Turning to `C=CC(=O)N1CCN(c2nc(=O)n(-c3c(C)cccc3C(C)C)c3nc(-c4c(O)cccc4F)c(F)cc23)C[C@@H]1C` [Example 63-1, 6-Fluoro-7-(2-fluoro-6-hydroxyphenyl)-1-(2-methyl-6-(2-propanyl)phenyl)-4-((3S)-3-methyl-4-(2-propenoyl)-1-piperazinyl)pyrido[2,3-d]pyrimidin-2(1H)-one], the “Coupled exchange IC50 (5 min)” value is reported as 2.15 | nda μM.

Regarding `C=CC(=O)N1CCN(c2nc(=O)n(-c3c(C)ccnc3C(C)C)c3nc(-c4c(O)cccc4F)c(F)cc23)[C@H](C(F)F)C1` (single isomer, unassigned) [Example 75-9-1, (M)-4-((2S or 2R)-2-(difluoromethyl)-4-(2-propenoyl)-1-piperazinyl)-6-fluoro-7-(2-fluoro-6-hydroxyphenyl)-1-(4-methyl-2-(2-propanyl)-3-pyridinyl)pyrido[2,3-d]pyrimidin-2(1H)-one], the “Coupled exchange IC50 (5 min)” value was 1.87 | nda μM.

For `C=CC(=O)N1CCN(c2nc(=O)n(-c3c(C(C)C)cccc3N(C)C)c3nc(-c4ccccc4F)c(Cl)cc23)[C@@H](C)C1` (single isomer, unassigned) [Example 54-104-1], the “Coupled exchange IC50 (5 min)” value is reported as 0.743 | nda μM.

As to `C=CC(=O)N1CCN(c2nc(=O)n(-c3c(CC)cccc3CC)c3nc(N4CCOC[C@H]4C)c(Cl)cc23)[C@@H](C)C1` [Example 66-33, 6-chloro-1-(2,6-diethylphenyl)-7-((3R)-3-methyl-4-morpholinyl)-4-((2S)-2-methyl-4-(2-propenoyl)-1-piperazinyl)pyrido[2,3-d]pyrimidin-2(1H)-one], the “Coupled exchange IC50 (5 min)” value was 15.9 | nda μM.

As for `C=CC(=O)N1CCN(c2nc(=O)n(-c3c(C)cccc3C(C)C)c3nc(-c4cc(Cl)ccc4O)c(F)cc23)[C@@H](C)C1` (single isomer, unassigned) [Example 114], the “Coupled exchange IC50 (5 min)” value is recorded as 6.435 | nda μM.

The test is the same for the next values; noted with them: 2 h compound pre-incubation.
In the case of `C=CC(=O)N1CCN(c2nc(=O)n(-c3c(CC)cccc3CC)c3nc(-c4c(O)cccc4F)ccc23)[C@@H](C)C1` [Example 107, 1-(2,6-Diethylphenyl)-7-(2-fluoro-6-hydroxyphenyl)-4-((2S)-2-methyl-4-(2-propenoyl)-1-piperazinyl)pyrido[2,3-d]pyrimidin-2(1H)-one], the “Coupled exchange IC50 (2 h)” value is “nda | 3.14 μM”.

As for `C=CC(=O)N1CCN(c2nc(=O)n(Cc3ccccn3)c3nc(-c4c(O)cccc4F)c(Cl)cc23)CC1` [Example 60-7], the “Coupled exchange IC50 (2 h)” value is given as “nda | 26.9 μM”.

Staying with this test, now noted: read-out: Coupled exchange IC50 (5 min); 5 min compound pre-incubation.
As for `C=CC(=O)N1CCN(c2nc(=O)n(-c3c(C(C)C)ncc(O)c3C)c3nc(-c4ccccc4F)c(Cl)cc23)[C@@H](C)C1` (atropisomer, axis not shown; (P)) [Example 83-1, (P)-6-Chloro-7-(2-fluorophenyl)-1-(5-hydroxy-4-methyl-2-(2-propanyl)-3-pyridinyl)-4-((2S)-2-methyl-4-(2-propenoyl)-1-piperaninyl)pyrido[2,3-d]pyrimidin-2(1H)-one], the IC50 is 548 nM.

The values are drawn from US11090304B2 (Amgen Inc., priority 2018, dated 2021).
